# US8546377B2 (AbbVie Inc., priority 2009, dated 2013)
# How the values were obtained:
# [1] = target: T1, human serotonin 5-HT2c receptor (Homo sapiens, UniProt P28335); experiment: Human 5-HT2C receptor radioligand binding assay (agonist site, [125I](±)DOI); details: membranes of transfected CHO cells, 0.2 nM [125I](±)DOI, 15 minutes at 37° C.
# T1 construct: expressed in transfected cells; host or cells: CHO cells (membrane homogenate)
# T1 sequence (P28335 33-458): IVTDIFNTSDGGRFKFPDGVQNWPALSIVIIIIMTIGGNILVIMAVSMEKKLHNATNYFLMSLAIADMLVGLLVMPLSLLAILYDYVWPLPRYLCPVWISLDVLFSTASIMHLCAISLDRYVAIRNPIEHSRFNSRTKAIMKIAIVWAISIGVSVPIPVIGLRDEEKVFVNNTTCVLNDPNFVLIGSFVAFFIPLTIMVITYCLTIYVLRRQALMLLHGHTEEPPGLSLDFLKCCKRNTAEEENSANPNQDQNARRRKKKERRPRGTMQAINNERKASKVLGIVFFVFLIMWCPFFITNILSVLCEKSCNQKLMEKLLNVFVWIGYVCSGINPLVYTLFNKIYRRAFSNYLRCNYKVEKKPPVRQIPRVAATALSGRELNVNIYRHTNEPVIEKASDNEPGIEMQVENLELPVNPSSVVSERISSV
# Procedure: To determine the effectiveness of compounds having a formula (I), these compounds can be evaluated in a radioligand binding assay for the agonist site of the human serotonin 5-HT2c receptor or in vitro models of cellular function.
# (i) Human 5-HT2C Receptor Radioligand Binding Assay
# Affinity of compounds for the agonist site of the 5-HT2c receptor in transfected CHO cells was determined in a radioligand binding assay essentially as described by Bryant, H. U., et al., Life Sciences (1996) 59(15), 1259-1268.
# [2] = target: T2, 5HT2C receptors (Homo sapiens, UniProt P28335); experiment: Human 5-HT2C functional assay in 1321N1 cells (intracellular calcium, FLIPR); format: cell-based; design: expressed in transfected cells; host or cells: 1321N1 cells; details: for EC50: 1321N1 cells stably transfected, maximum calcium response, read-out: EC50 (μM), 5-HT2c Agonist Activity; for Emax: 1321N1 cells, percentage relative to the effect of serotonin, read-out: Emax (%), 5-HT2c Agonist Activity
# T2 sequence (P28335 33-458): T1 sequence (P28335 33-458)
# Procedure: (ii) Human 5-HT2C Functional Assay in 1321N1 Cells
# Functional activity was determined by testing the effect of the compounds on intracellular calcium levels in 1321N1 cells stably transfected with the human 5-HT2C receptor. Cells were seeded into 96-well plates at 50,000 cells/well and grown overnight in tissue culture medium (DMEM with Glutamax I (Invitrogen), containing 10% dFCS, 50 μg/mL Gentamicin, 400 μg/mL Geneticin) at 37° C. and 7% CO2. Growth medium was replaced by medium without dFCS for overnight incubation. Cells were loaded with a fluorescent calcium-sensitive dye in the presence of 1% probenicid according to the manufacturer's protocol (Fluo4 AM, Molecular Devices). Serial compound dilutions (final concentrations 10^−10 to 10^−5 M) were added to the cells either alone or in the presence of serotonin (10^−9 M) and the maximum calcium response was determined using a FLIPR instrument (Molecular Devices). Concentration-response curves were fitted using a four-parameter logistic equation (GraphPad Prism). The concentration at which the compound exerts half its maximal effect is named the ‘effective concentration 50’ or ‘EC50’ and is listed in Table 2.
# Emax is the maximum functional response or efficacy expressed as a percentage relative to the effect of serotonin.
SMILES,Ki [1] [µM],EC50 [2] [µM],Emax [2] [%]
"O=C1CC2CNCCN2c2ccccc2N1 (stereo not shown) [Example 1, 1,2,3,4,4a,5-hexahydropyrazino[1,2-a][1,5]benzodiazepin-6(7H)-one]",0.086,0.0135,100
"O=C1CC2CNCCN2c2cc(Cl)ccc2N1 (stereo not shown) [Example 3, 10-chloro-1,2,3,4,4a,5-hexahydropyrazino[1,2-a][1,5]benzodiazepin-6(7H)-one]",0.012,0.0017,93
"O=C1CC2CNCCN2c2cc(Br)ccc2N1 (stereo not shown) [Example 4, 10-bromo-1,2,3,4,4a,5-hexahydropyrazino[1,2-a][1,5]-benzodiazepin-6(7H)-one]",0.0069,0.0028,92
"O=C1CC2CNCCN2c2cc(-c3ccccc3)ccc2N1 (stereo not shown) [Example 5, 10-phenyl-1,2,3,4,4a,5-hexahydropyrazino[1,2-a][1,5]benzodiazepin-6(7H)-one]",0.074,0.0849,86
"O=C1CC2CNCCN2c2cc(/C=C/c3ccccc3)ccc2N1 (stereo not shown) [Example 6, 10-[(E)-2-phenylvinyl]-1,2,3,4,4a,5-hexahydropyrazino[1,2-a][1,5]benzodiazepin-6(7H)-one]",0.0035,0.0298,89.5
"O=C1CC2CNCCN2c2cc(-c3cccc(Cl)c3)ccc2N1 (stereo not shown) [Example 7, 10-(3-chlorophenyl)-1,2,3,4,4a,5-hexahydropyrazino[1,2-a][1,5]benzodiazepin-6(7H)-one]",0.041,0.0279,86
"Cc1ccc2c(c1)N1CCNCC1CC(=O)N2 (stereo not shown) [Example 10, 10-methyl-1,2,3,4,4a,5-hexahydropyrazino[1,2-a][1,5]benzodiazepin-6(7H)-one]",0.0083,0.003,99
"N#Cc1ccc2c(c1)N1CCNCC1CC(=O)N2 (stereo not shown) [Example 11, 6-oxo-1,2,3,4,4a,5,6,7-octahydropyrazino[1,2-a][1,5]benzodiazepine-10-carbonitrile]",0.19,0.0938,104
"COc1ccc2c(c1)N1CCNCC1CC(=O)N2 (stereo not shown) [Example 12, 10-methoxy-1,2,3,4,4a,5-hexahydropyrazino[1,2-a][1,5]benzodiazepin-6(7H)-one]",0.038,0.0381,83.5
"O=C1CC2CNCCN2c2ccc(Br)cc2N1 (stereo not shown) [Example 13, 9-bromo-1,2,3,4,4a,5-hexahydropyrazino[1,2-a][1,5]benzodiazepin-6(7H)-one]",0.23,0.0683,79
"O=C1CC2CNCCN2c2cc(Cl)c(Cl)cc2N1 (stereo not shown) [Example 15, 9,10-dichloro-1,2,3,4,4a,5-hexahydropyrazino[1,2-a][1,5]benzodiazepin-6(7H)-one]",0.017,0.0081,104
"Clc1cc2c(cc1Cl)N1CCNCC1CCN2 (stereo not shown) [Example 16, 9,10-dichloro-1,2,3,4,4a,5,6,7-octahydropyrazino[1,2-a][1,5]benzodiazepine]",0.004,0.0018,91
"c1ccc2c(c1)NCCC1CNCCN21 (stereo not shown) [Example 17, 1,2,3,4,4a,5,6,7-octahydropyrazino[1,2-a][1,5]benzodiazepine]",0.14,0.073,111
"Clc1ccc2c(c1)N1CCNCC1CCN2 (stereo not shown) [Example 18, 10-chloro-1,2,3,4,4a,5,6,7-octahydropyrazino[1,2-a][1,5]benzodiazepine]",0.018,0.0037,108
"CN1C(=O)CC2CNCCN2c2ccccc21 (stereo not shown) [Example 20, 7-methyl-1,2,3,4,4a,5-hexahydropyrazino[1,2-a][1,5]benzodiazepin-6(7H)-one]",0.22,0.0759,103
"Clc1ccccc1CN1CCC2CNCCN2c2ccccc21 (stereo not shown) [Example 21, 7-(2-chlorobenzyl)-1,2,3,4,4a,5,6,7-octahydropyrazino[1,2-a][1,5]benzodiazepine]",0.097,0.044,93
"Clc1cccc(CN2CCC3CNCCN3c3ccccc32)c1 (stereo not shown) [Example 22, 7-(3-chlorobenzyl)-1,2,3,4,4a,5,6,7-octahydropyrazino[1,2-a][1,5]benzodiazepine]",0.085,0.0697,80.5
"CCN1CCN2c3ccccc3NC(=O)CC2C1 (stereo not shown) [Example 23, 3-ethyl-1,2,3,4,4a,5-hexahydropyrazino[1,2-a][1,5]benzodiazepin-6(7H)-one]",0.19,0.165,87
"O=C1CC2CN(Cc3ccccc3)CCN2c2cc(Cl)ccc2N1 (stereo not shown) [Example 24, 3-benzyl-10-chloro-1,2,3,4,4a,5-hexahydropyrazino[1,2-a][1,5]benzodiazepin-6(7H)-one]",0.36,0.942,
"O=C1CC2CNCCN2c2cc(/C=C/c3cccc(Cl)c3)ccc2N1 (stereo not shown) [Example 25, 10-[(E)-2-(3-chlorophenyl)vinyl]-1,2,3,4,4a,5-hexahydropyrazino[1,2-a][1,5]benzodiazepin-6(7H)-one]",0.0014,0.0145,101
"O=C1CC2CNCCN2c2cc(/C=C/c3ccc(F)cc3)ccc2N1 (stereo not shown) [Example 26, 10-[(E)-2-(4-fluorophenyl)vinyl]-1,2,3,4,4a,5-hexahydropyrazino[1,2-a][1,5]benzodiazepin-6(7H)-one]",0.032,0.0855,98.5
"O=C1CC2CNCCN2c2cc(/C=C/c3ccc(Cl)cc3)ccc2N1 (stereo not shown) [Example 27, 10-[(E)-2-(4-chlorophenyl)vinyl]-1,2,3,4,4a,5-hexahydropyrazino[1,2-a][1,5]benzodiazepin-6(7H)-one]",0.013,0.183,96.5
"O=C1CC2CNCCN2c2cc(/C=C/c3ccc(F)cc3F)ccc2N1 (stereo not shown) [Example 28, 10-[(E)-2-(2,4-difluorophenyl)vinyl]-1,2,3,4,4a,5-hexahydropyrazino[1,2-a][1,5]benzodiazepin-6(7H)-one]",0.036,0.131,92
"O=C1CC2CNCCN2c2cc(CCc3ccccc3)ccc2N1 (stereo not shown) [Example 29, 10-(2-phenylethyl)-1,2,3,4,4a,5-hexahydropyrazino[1,2-a][1,5]benzodiazepin-6(7H)-one]",0.011,0.0043,104
"O=C1CC2CNCCN2c2c(Br)cccc2N1 (stereo not shown) [Example 30, 11-bromo-1,2,3,4,4a,5-hexahydropyrazino[1,2-a][1,5]benzodiazepin-6(7H)-one]",0.016,0.0017,113
"O=C1CC2CNCCN2c2cc(C(F)(F)F)ccc2N1 (stereo not shown) [Example 31, 10-(trifluoromethyl)-1,2,3,4,4a,5-hexahydropyrazino[1,2-a][1,5]benzodiazepin-6(7H)-one]",0.087,0.0204,118
"O=C1CC2CNCCN2c2ccc(F)cc2N1 (stereo not shown) [Example 34, 9-fluoro-1,2,3,4,4a,5-hexahydropyrazino[1,2-a][1,5]-benzodiazepin-6(7H)-one]",0.19,0.0893,100
"O=C1CC2CNCCN2c2ccc3ccccc3c2N1 (stereo not shown) [Example 39, 3,3a,4,5,6,7-hexahydronaphtho[1,2-b]pyrazino[1,2-d][1,4]diazepin-2(1H)-one]",0.034,> 10,
